Format in all cases: in vivo
Test [1] relates to Abutilon theophrasti. Briefly: Post-emergence herbicidal efficacy at 80 g/ha, ABUTH. The settings on record: rated visually after about 3 weeks vs untreated controls, 100% = plants have died. The text has this:
(§1) Unwanted plants/weeds: • ABUTH: Abutilon theophrasti • ALOMY: Alopecurus myosuroides • AMARE: Amaranthus retroflexus • DIGSA: Digitaria sanguinalis • ECHCG: Echinochloa crus-galli • KCHSC: Kochia scoparia • LOLRI: Lolium rigidum • MATIN: Matricaria inodora • POAAN: Poa annua • POLCO: Polygonum convolvulus • SETVI: Setaria viridis • STEME: Stellaria media • VERPE: Veronica persica • VIOTR: Viola tricolor A. Post-Emergence Herbicidal Efficacy at 320 g/ha
(§2) Seeds of monocotyledonous and dicotyledonous weeds and crop plants were placed in sandy loam in plastic or organic planting pots, covered with soil and cultivated in a greenhouse under controlled growth conditions. 2 to 3 weeks after sowing, the test plants were treated at the one-leaf stage. The compounds of the invention, formulated in the form of wettable powders (WP) or as emulsion concentrates (EC), were then sprayed onto the green parts of the plants as aqueous suspension or emulsion with addition of 0.5% additive at a water application rate of 600 l/ha (converted). After the test plants had been kept in the greenhouse under optimum growth conditions for about 3 weeks, the activity of the preparations was rated visually in comparison to untreated controls. For example, 100% activity=the plants have died, 0% activity=like control plants.
(§3) Tables B1 to B11 below show the effects of selected compounds of the general formula (I) according to Table 1 on various harmful plants and an application rate corresponding to 80 g/ha, which were obtained by the experimental procedure mentioned above.

The test system of test [2] is Amaranthus retroflexus. Description: Post-emergence herbicidal efficacy at 80 g/ha, AMARE. The note with it: rated visually after about 3 weeks vs untreated controls, 100% = plants have died. The procedure, abridged:
(§4)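 Foliar application at the one-leaf stage used wettable powder or emulsion concentrate formulations diluted in water with 0.5% additive (600 l/ha). Percent activity was estimated by eye after roughly 3 weeks in the greenhouse, relative to untreated controls.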

Test [3] relates to Digitaria sanguinalis. Briefly: Post-emergence herbicidal efficacy at 80 g/ha, DIGSA. The note with it: rated visually after about 3 weeks vs untreated controls, 100% = plants have died.
From the text: as §1, §2, §3

The test system of test [4] is Echinochloa crus-galli. Briefly: Post-emergence herbicidal efficacy at 80 g/ha, ECHCG. The settings on record: rated visually after about 3 weeks vs untreated controls, 100% = plants have died.
From the text: as §1, §2, §3

In test [5] the test system is Kochia scoparia. Description: Post-emergence herbicidal efficacy at 80 g/ha, KCHSC. The settings on record: rated visually after about 3 weeks vs untreated controls, 100% = plants have died. The procedure, abridged: as §4
The next test has as its system PHBPU. Briefly: Post-emergence herbicidal efficacy at 80 g/ha, PHBPU. The settings on record: rated visually after about 3 weeks vs untreated controls, 100% = plants have died. As to the method:
as §2, with “plants. Tables B1 to B11 below show the effects of selected compounds of the general formula (I) according to Table 1 on various harmful plants and an application rate corresponding to 80 g/ha, which were obtained by the experimental procedure mentioned above.” for “plants.”

Test [6] relates to Polygonum convolvulus. Description: Post-emergence herbicidal efficacy at 80 g/ha, POLCO. The note with it: rated visually after about 3 weeks vs untreated controls, 100% = plants have died.
From the text: as §1
as §2, with “plants. […]” for “plants.”

In test [7] the test system is Setaria viridis. Briefly: Post-emergence herbicidal efficacy at 80 g/ha, SETVI. The settings on record: rated visually after about 3 weeks vs untreated controls, 100% = plants have died.
From the text: as §1, §2, §3

The test system of test [8] is Veronica persica. Description: Post-emergence herbicidal efficacy at 80 g/ha, VERPE. The settings on record: rated visually after about 3 weeks vs untreated controls, 100% = plants have died. In outline: as §4
The subject of test [9] is Viola tricolor. Briefly: Post-emergence herbicidal efficacy at 80 g/ha, VIOTR. The note with it: rated visually after about 3 weeks vs untreated controls, 100% = plants have died. In outline: as §4
The subject of test [10] is Abutilon theophrasti. Briefly: Pre-emergence herbicide efficacy at 80 g/ha, ABUTH. The note with it: scored visually after about 3 weeks vs untreated controls, 100% = plants have died. The procedure, abridged: (§5)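 Percent herbicidal activity is a visual rating relative to untreated pots, taken roughly 3 weeks after compounds went onto the covering soil of sown seeds as an aqueous WP or EC preparation with 0.5% additive.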

For a further test, the system named is Alopecurus myosuroides. Briefly: Pre-emergence herbicide efficacy at 80 g/ha, ALOMY. The note with it: scored visually after about 3 weeks vs untreated controls, 100% = plants have died.
From the text: as §1
(§6) Seeds of monocotyledonous and dicotyledonous weed plants and crop plants were placed in plastic or organic planting pots and covered with soil. The compounds of the invention, formulated in the form of wettable powders (WP) or as emulsion concentrates (EC), were then applied to the surface of the covering soil as aqueous suspension or emulsion with addition of 0.5% additive at a water application rate equivalent to 600 l/ha. After the treatment, the pots were placed in a greenhouse and kept under good growth conditions for the test plants. After about 3 weeks, the efficacy of the preparations was scored visually in comparison with untreated controls as percentages. For example, 100% activity=the plants have died, 0% activity=like control plants.
(§7) Tables D1 to D12 below show the effects of selected compounds of the general formula (I) according to Table 1 on various harmful plants and an application rate corresponding to 80 g/ha, which were obtained by the experimental procedure mentioned above.

The test system of test [11] is Amaranthus retroflexus. Briefly: Pre-emergence herbicide efficacy at 80 g/ha, AMARE. The settings on record: scored visually after about 3 weeks vs untreated controls, 100% = plants have died. The procedure, abridged: as §5
Test [12] deals with Digitaria sanguinalis. Briefly: Pre-emergence herbicide efficacy at 80 g/ha, DIGSA. The note with it: scored visually after about 3 weeks vs untreated controls, 100% = plants have died. The procedure, abridged:
as §5

For test [13], the system named is Echinochloa crus-galli. Description: Pre-emergence herbicide efficacy at 80 g/ha, ECHCG. The note with it: scored visually after about 3 weeks vs untreated controls, 100% = plants have died. The procedure, abridged: as §5
A further test deals with Lolium rigidum. Briefly: Pre-emergence herbicide efficacy at 80 g/ha, LOLRI. The settings on record: scored visually after about 3 weeks vs untreated controls, 100% = plants have died.
From the text: as §1
as §6, with “control plants. […]” for “control plants.”

The subject of test [14] is Kochia scoparia. Description: Pre-emergence herbicide efficacy at 80 g/ha, KCHSC. The note with it: scored visually after about 3 weeks vs untreated controls, 100% = plants have died. The procedure, abridged:
as §5

A further test relates to Matricaria inodora. Description: Pre-emergence herbicide efficacy at 80 g/ha, MATIN. The note with it: scored visually after about 3 weeks vs untreated controls, 100% = plants have died.
From the text: as §1, §6, §7

Test [15] concerns Polygonum convolvulus. Description: Pre-emergence herbicide efficacy at 80 g/ha, POLCO. The note with it: scored visually after about 3 weeks vs untreated controls, 100% = plants have died. In outline:
as §5

The test system of test [16] is Setaria viridis. Briefly: Pre-emergence herbicide efficacy at 80 g/ha, SETVI. The procedure, abridged: as §5
The subject of test [17] is Veronica persica. Description: Pre-emergence herbicide efficacy at 80 g/ha, VERPE. In outline: as §5
Test [18] has as its system Viola tricolor. Description: Pre-emergence herbicide efficacy at 80 g/ha, VIOTR. The procedure, abridged:
as §5

As to `FC(F)c1cc(-c2c(Cl)cccc2Nc2ncc(Cl)cn2)on1` [Example 1-61], in the test on Abutilon theophrasti [1], the “Post-emergence efficacy at 80 g/ha against ABUTH in %” value was 100%. Moreover, the “Post-emergence efficacy at 80 g/ha against AMARE in %” value with Amaranthus retroflexus [2] turned out to be 100%. Further, in the test on Digitaria sanguinalis [3], the “Post-emergence efficacy at 80 g/ha against DIGSA in %” value is on record as 100%. The “Post-emergence efficacy at 80 g/ha against ECHCG in %” value in the test with Echinochloa crus-galli [4] turned out to be 100%. Besides, the “Post-emergence efficacy at 80 g/ha against KCHSC in %” value with Kochia scoparia [5] worked out at 100%. Moreover, in the test on PHBPU, the “Post-emergence efficacy at 80 g/ha against PHBPU in %” value turned out to be 100%. In addition, the “Post-emergence efficacy at 80 g/ha against POLCO in %” value with Polygonum convolvulus [6] is on record as 100%. In the test on Setaria viridis [7], the “Post-emergence efficacy at 80 g/ha against SETVI in %” value is 100%. Also, the “Post-emergence efficacy at 80 g/ha against VERPE in %” value in the test with Veronica persica [8] was 100%. In the test with Viola tricolor [9], the “Post-emergence efficacy at 80 g/ha against VIOTR in %” value amounted to 100%. The “Pre-emergence efficacy at 80 g/ha against ABUTH in %” value in the test on Abutilon theophrasti [10] is reported as 90%. In addition, the “Pre-emergence efficacy at 80 g/ha against ALOMY in %” value with Alopecurus myosuroides was found to be 90%. Also, the “Pre-emergence efficacy at 80 g/ha against AMARE in %” value in the test with Amaranthus retroflexus [11] amounted to 100%. Moreover, the “Pre-emergence efficacy at 80 g/ha against DIGSA in %” value in the test on Digitaria sanguinalis [12] worked out at 100%. In addition, the “Pre-emergence efficacy at 80 g/ha against ECHCG in %” value with Echinochloa crus-galli [13] was found to be 100%. Further, the “Pre-emergence efficacy at 80 g/ha against LOLRI in %” value in the test with Lolium rigidum stood at 90%. Besides, the “Pre-emergence efficacy at 80 g/ha against KCHSC in %” value in the test on Kochia scoparia [14] is reported as 100%. Moreover, in the test with Matricaria inodora, the “Pre-emergence efficacy at 80 g/ha against MATIN in %” value is given as 100%. The “Pre-emergence efficacy at 80 g/ha against POLCO in %” value in the test with Polygonum convolvulus [15] stood at 80%. Moreover, the “Pre-emergence efficacy against SETVI” value in the test on Setaria viridis [16] is on record as 100%. Also, in the test with Veronica persica [17], the “Pre-emergence efficacy against VERPE” value came out at 90%. The “Pre-emergence efficacy against VIOTR” value in the test on Viola tricolor [18] is on record as 100%.

The values above are taken from patent US20250311727A1, “SUBSTITUTED 2-AMINOAZINES AND SALTS THEREOF, AND USE THEREOF AS HERBICIDAL ACTIVE SUBSTANCES” (BAYER AKTIENGESELLSCHAFT, priority 2022, published 2025).
